# Test results from patent US20230041738A1, “1H-PYRAZOLO[4,3-d]PYRIMIDINE COMPOUNDS AS TOLL-LIKE RECEPTOR 7 (TLR7) AGONISTS” (BRISTOL-MYERS SQUIBB COMPANY, priority 2020, published 2023).
# How the values were obtained:
# human TLR7 = molecular target: T1, human TLR7 (Homo sapiens, UniProt Q9NYK1); assay: Human TLR7 agonist activity assay (hTLR7 reporter, HEK-Blue TLR7 cells, SEAP); type: cell-based; settings: HEK-Blue TLR7 cells with SEAP reporter, 18 h treatment; average where assay performed multiple times
# T1 construct: host or cells: HEK-Blue TLR7 cells (engineered human embryonic kidney cells)
# T1 sequence (Q9NYK1 27-1049): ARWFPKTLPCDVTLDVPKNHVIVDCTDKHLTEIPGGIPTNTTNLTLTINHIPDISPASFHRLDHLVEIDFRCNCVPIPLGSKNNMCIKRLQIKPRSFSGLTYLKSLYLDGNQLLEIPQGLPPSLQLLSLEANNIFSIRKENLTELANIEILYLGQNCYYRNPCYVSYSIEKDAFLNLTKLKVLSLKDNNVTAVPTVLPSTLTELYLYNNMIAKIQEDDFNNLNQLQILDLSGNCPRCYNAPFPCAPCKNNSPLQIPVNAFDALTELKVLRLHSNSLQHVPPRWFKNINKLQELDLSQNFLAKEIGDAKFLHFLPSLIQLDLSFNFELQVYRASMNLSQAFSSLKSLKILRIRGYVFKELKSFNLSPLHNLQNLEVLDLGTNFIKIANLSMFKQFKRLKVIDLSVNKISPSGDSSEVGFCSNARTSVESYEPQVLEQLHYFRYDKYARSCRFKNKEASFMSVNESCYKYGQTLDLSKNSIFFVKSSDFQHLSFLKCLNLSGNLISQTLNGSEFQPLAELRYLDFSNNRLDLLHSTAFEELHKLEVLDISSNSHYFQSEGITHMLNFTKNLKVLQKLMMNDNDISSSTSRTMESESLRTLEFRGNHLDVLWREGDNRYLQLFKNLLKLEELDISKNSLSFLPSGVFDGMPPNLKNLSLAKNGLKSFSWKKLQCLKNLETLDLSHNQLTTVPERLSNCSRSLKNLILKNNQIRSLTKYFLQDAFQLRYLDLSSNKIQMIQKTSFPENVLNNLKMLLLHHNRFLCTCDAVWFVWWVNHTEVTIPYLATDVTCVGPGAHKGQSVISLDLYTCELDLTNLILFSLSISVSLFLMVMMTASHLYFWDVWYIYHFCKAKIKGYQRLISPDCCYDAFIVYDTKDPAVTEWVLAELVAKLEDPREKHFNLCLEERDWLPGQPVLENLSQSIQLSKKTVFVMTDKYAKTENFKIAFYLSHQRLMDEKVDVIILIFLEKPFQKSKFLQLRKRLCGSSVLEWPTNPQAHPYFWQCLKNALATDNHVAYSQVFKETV
# Description: This procedure describes a method for assaying human TLR7 (hTLR7) agonist activity of the compounds disclosed in this specification.
# HEK-Blue™ TLR7 cells were added to each well of a 384-well tissue-culture plate (15,000 cells per well) and incubated 16-18 h at 37° C., 5% CO2. Compounds (100 nl) were dispensed into wells containing the HEK-Blue™ TLR cells and the treated cells were incubated at 37° C., 5% CO2. After 18 h treatment ten microliters of freshly-prepared Quanti-Blue™ reagent (Invivogen) was added to each well, incubated for 30 min (37° C., 5% CO2) and SEAP levels measured using an Envision plate reader (OD=620 nm). The half maximal effective concentration values (EC50; compound concentration which induced a response halfway between the assay baseline and maximum) were calculated.
# CD69 = assay: Induction of CD69 in human whole blood (hWB); type: cell-based; settings: 17 hrs at 37 C, CD69 surface staining, 100% set to 1 uM resiquimod, average where performed multiple times
# Description: The induction of Type I interferon (IFN) MX-1 genes and the B-cell activation marker CD69 are downstream events that occur upon activation of the TLR7 pathway. The following is a human whole blood assay that measures their induction in response to a TLR7 agonist.
# Heparinized human whole blood was harvested from human subjects and treated with test TLR7 agonist compounds at 1 mM. The blood was diluted with RPMI 1640 media and Echo was used to predot 10 nL per well giving a final concentration of 1 uM (10 nL in 10 uL of blood). After mixing on a shaker for 30 sec, the plates were covered and placed in a 37° C. chamber for o/n=17 hrs. Fixing/lysis buffer was prepared (5×→1× in H2O, warm at 37° C.; Cat #BD 558049) and kept the perm buffer (on ice) for later use.
# For surface markers staining (CD69): prepared surface Abs: 0.045 ul hCD14-FITC (ThermoFisher Cat #MHCD1401)+0.6 ul hCD19-ef450 (ThermoFisher Cat #48-0198-42)+1.5 ul hCD69-PE (cat #BD555531)+0.855 ul FACS buffer. Added 3 ul/well, spin1000 rpm for 1 min and mixed on shaker for 30 sec, put on ice for 30 mins. Stop stimulation after 30 min with 70 uL of prewarmed 1× fix/lysis buffer and use Feliex mate to resuspend (15 times, change tips for each plate) and incubate at 37C for 10 min.
# Centrifuge at 2000 rpm for 5 min aspirate with HCS plate washer, mix on shaker for 30 sec and then wash with 70 uL in dPBS and pelleted 2× s (2000 rpm for 5 min) and 50 ul wash in FACS buffer pelleted 1×s(2000 rpm for 5 min). Mix on shaker for 30 sec. For Intracellular markers staining (MX-1): Add 50 ul of BD Perm buffer III and mix on shaker for 30 sec. Incubate on ice for 30 min (in the dark). Wash with 50 uL of FACS buffer 2× (spin @2300 rpm×5 min after perm) followed by mixing on shaker for 30 sec. Resuspended in 20 ul of FACS buffer containing MX1 antibody ( )(4812)-Alexa 647: Novus Biologicals #NBP2-43704AF647) 20 ul FACS bf+0.8 ul hlgG+0.04 ul MX-1. Spin 1000 rpm for 1 min, mix on shaker for 30se and the samples were incubated at RT in the dark for 45 min followed by washing 2× FACS buffer (spin @2300 rpm×5 min after perm). Resuspend 20 ul (35 uL total per well) of FACS buffer and cover with foil and place in 4° C. to read the following day. Plates were read on iQuePlus. The results were loaded into toolset and IC50 curves are generated in curve master. The y-axis 100% is set to 1 uM of resiquimod.
SMILES,EC50 (human TLR7) [nM],EC50 (CD69) [nM]
"CCC[C@@H](CCO)Nc1nc(N)nc2cnn(Cc3ccc(CN4C[C@H]5CN(C)C[C@H]5C4)cc3OC)c12 [Compound 122, (3S)-3-({1-[(4-{[(3aR,6aS)-5-methyl-octahydropyrrolo[3,4-c]pyrrol-2-yl]methyl}-2-methoxyphenyl)methyl]-5-amino-1H-pyrazolo[4,3-d]pyrimidin-7-yl}amino)hexan-1-ol]",7.2,0.7
"CCCCNc1nc(N)nc2cnn(Cc3ccc(C(=O)N4C[C@H]5CNC[C@H]5C4)cc3OC(F)F)c12 [Compound 123, 1-({4-[(3aR,6aS)-octahydro-pyrrolo[3,4-c]pyrrole-2-carbonyl]-2-(difluoromethoxy)phenyl}methyl)-N7-butyl-1H-pyrazolo[4,3-d]pyrimidine-5,7-diamine]",2240,482
"COc1cc(CN2C[C@@H]3C[C@H]2CO3)ccc1Cn1ncc2nc(N)nc(NCc3cc(C)on3)c21 [Compound 127, 1-[(2-methoxy-4-{[(1S,4S)-2-oxa-5-azabicyclo[2.2.1]heptan-5-yl]methyl}phenyl)methyl]-N7-[(5-methyl-1,2-oxazol-3-yl)methyl]-1H-pyrazolo[4,3-d]pyrimidine-5,7-diamine]",682,16.7
"COc1cc(CN2C[C@H]3C[C@@H]2CN3C)ccc1Cn1nc(C)c2nc(N)nc(NCc3cc(C)on3)c21 [Compound 128, 1-[(2-methoxy-4-{[(1R,4R)-5-methyl-2,5-diazabicyclo[2.2.1]-heptan-2-yl]methyl}phenyl)-methyl]-3-methyl-N7-[(5-methyl-1,2-oxazol-3-yl)methyl]-1H-pyra-zolo[4,3-d]pyrimidine-5,7-diamine]",74.4,28
"COc1cc(CN2C[C@@H]3C[C@H]2CN3)ccc1Cn1ncc2nc(N)nc(NCc3noc(C)n3)c21 [Compound 129, 1-[(4-{[(1S,4S)-2,5-diaza-bicyclo[2.2.1]heptan-2-yl]methyl}-2-methoxyphenyl)methyl]-N7-[(5-methyl-1,2,4-oxadiazol-3-yl)methyl]-1H-pyrazolo[4,3-d]pyri-midine-5,7-diamine]",323,804
"COc1cc(CN2C[C@@H]3C[C@H]2CN3C)ccc1Cn1ncc2nc(N)nc(NCc3noc(C)n3)c21 [Compound 130, 1-[(2-methoxy-4-{[(1S,4S)-5-methyl-2,5-diazabicyclo[2.2.1]-heptan-2-yl]methyl}phenyl)methyl]-N7-[(5-methyl-1,2,4-oxa-diazol-3-yl)methyl]-1H-pyrazolo[4,3-d]pyrimidine-5,7-diamine]",135,74.3
"CCC[C@@H](CCO)Nc1nc(N)nc2cnn(Cc3cnc(CN4C[C@@H]5C[C@H]4CN5C)cc3OC)c12 [Compound 131, (3S)-3-({5-amino-1-[(4-methoxy-6-{[(1S,4S)-5-methyl-2,5-diaza-bicyclo[2.2.1]heptan-2-yl]methyl}pyridin-3-yl)methyl]-1H-pyrazolo[4,3-d]pyrimidin-7-yl}amino)hexan-1-ol]",333,11.7
"CCCCNc1nc(N)nc2cnn(Cc3ccc(CN4C[C@H]5CNC[C@H]5C4)cc3OC)c12 [Compound 136, 1-[(4-{[(3aR,6aS)-octahydro-pyrrolo[3,4-c]pyrrol-2-yl]methyl}-2-methoxyphenyl)methyl]-N7-butyl-1H-pyrazolo[4,3-d]pyrimidine-5,7-diamine]",62.2,1.3

# The remaining lines, values ahead:
EC50 (human TLR7) [nM],EC50 (CD69) [nM],SMILES
65.9,2.2,"CCC[C@@H](CCO)Nc1nc(N)nc2cnn(Cc3cnc(CN4C[C@H]5CN(C)C[C@H]5C4)cc3OC)c12 [Compound 132, (3S)-3-({1-[(6-{[(3aR,6aS)-5-methyl-octahydropyrrolo[3,4-c]pyrrol-2-yl]methyl}-4-methoxypyridin-3-yl)methyl]-5-amino-1H-pyrazolo [4,3-d]pyrimidin-7-yl}amino)hexan-1-ol]"
89.9,2.8,"CCC[C@@H](CCO)Nc1nc(N)nc2cnn(Cc3cnc(CN4C[C@H]5CNC[C@H]5C4)cc3OC)c12 [Compound 133, (3S)-3-({1-[(6-{[(3aR,6aS)-octa-hydropyrrolo[3,4-c]pyrrol-2-yl]methyl}-4-methoxypyridin-3-yl)methyl]-5-amino-1H-pyrazolo[4,3-d]pyrimidin-7-yl}amino)hexan-1-ol]"
354,22.4,"CCC[C@@H](CCO)Nc1nc(N)nc2cnn(Cc3cnc(CN4C[C@@H]5C[C@H]4CN5)cc3OC)c12 [Compound 134, (3S)-3-({5-amino-1-[(6-{[(1S,4S)-2,5-diazabicyclo[2.2.1]heptan-2-yl]methyl}-4-methoxypyridin-3-yl)methyl]-1H-pyrazolo[4,3-d]pyrimidin-7-yl}amino)hexan-1-ol]"
297,12.2,"CCC[C@@H](CCO)Nc1nc(N)nc2cnn(Cc3ncc(CN4C[C@@H]5C[C@H]4CN5CCO)cc3OC)c12 [Compound 135, (3S)-3-({5-amino-1-[(5-{[(1S,4S)-5-(2-hydroxyethyl)-2,5-diaza-bicyclo[2.2.1]heptan-2-yl]methyl}-3-methoxypyridin-2-yl)methyl]-1H-pyrazolo[4,3-d]pyrimidin-7-yl}amino)hexan-1-ol]"
576,13.2,"COc1cc(CN2C[C@H]3C[C@@H]2CN3C)ccc1Cn1ncc2nc(N)nc(N[C@H](CO)CC3CC3)c21 [Compound 137, (2S)-2-({5-amino-1-[(2-methoxy-4-{[(1R,4R)-5-methyl-2,5-diaza-bicyclo[2.2.1]heptan-2-yl]methyl}-phenyl]methyl]-1H-pyrazolo[4,3-d]pyrimidin-7-yl}amino)-3-cyclopropylpropan-1-ol]"
278,3,"CCC[C@@H](CCO)Nc1nc(N)nc2cnn(Cc3ncc(CN4C[C@H]5C[C@@H]4CN5CCO)cc3OC)c12 [Compound 138, (3S)-3-({5-amino-1-[(5-{[(1R,4R)-5-(2-hydroxyethyl)-2,5-diaza-bicyclo[2.2.1]heptan-2-yl]methyl}-3-methoxypyridin-2-yl)methyl]-1H-pyrazolo[4,3-d]pyrimidin-7-yl}amino)hexan-1-ol]"
